Laboratory results from patent publication US20250374927A1, “HERBICIDAL COMBINATIONS AND A METHOD FOR CONTROLLING UNDESIRED VEGETATION” (UPL Mauritius Limited, priority 2022, published 2025).

System: Borreria verticillata
Test: Post-emergence herbicidal efficacy of L-glufosinate ammonium, additional herbicides and their combinations (observed vs Colby expected)
Format: in vivo
Method: Methodology: Trials were carried out to evaluate the efficacy of the combination comprising L-glufosinate ammonium and the additional herbicides on Spermacoce genus weeds.
The soil used was sandy clay loam-sand: 68.0%; silt: 8.0%; clay: 24.0%.
All treatments were in 4 replications per treatment with a spray volume of about 150 L/ha.
Efficacy Evaluation: The expected efficacy of the combination comprising L-glufosinate ammonium and additional herbicides was calculated using the well-established Colby method.
In the Colby method, the expected (or predicted) response of a combination of herbicides is calculated by taking the product of the observed response for each individual component of the combination when applied alone, divided by 100, and subtracting this value from the sum of the observed response for each component when applied alone. An unexpected enhancement in efficacy of the combination is then determined by comparing the observed response of the combination to the expected (or predicted) response as calculated from the observed response of each individual component alone. If the observed response of the combination is greater than the expected (or predicted) response, or stated conversely, if the difference between the observed and expected response is greater than zero, then the combination is said to be synergistic or unexpectedly effective (Colby, S. R., Weeds, 1967(15), p. 20-22). The Colby method requires only a single dose of each herbicide applied alone and the mixture of both doses. The formula used to calculate the expected efficacy (EE) which was compared with the observed efficacy (OE) to determine the efficacy of the present disclosure is explained hereinbelow:
The expected efficacy for a combination of two active ingredients is as follows:
The expected efficacy for a combination of three active ingredients is as follows: […]

C[N+](C)(C)CCO.O=C([O-])COc1ccc(Cl)cc1Cl [2,4-D choline, 2,4-dichlorophenoxyacetic acid (2,4-D) choline]
Observed efficacy (%) of 2,4-D choline (137 g a.i./ha) (7 DAA, 137 g a.i./ha, Example 9): 30% | Observed efficacy (%) of 2,4-D choline (228 g a.i./ha) (7 DAA, 228 g a.i./ha, Example 10): 30%

COc1c(Cl)ccc(Cl)c1C(=O)O [Dicamba]
Observed efficacy (%) of Dicamba (228 g a.i./ha) (7 DAA, 228 g a.i./ha, Example 1): 45% | Observed efficacy (%) of Dicamba (228 g a.i./ha) (28 DAA, 228 g a.i./ha, Example 1): 40%

COc1c(Cl)ccc(-c2nc(C(=O)OCc3ccccc3)c(Cl)c(N)c2F)c1F [Florpyrauxifen-benzyl]
Observed efficacy (%) of Florpyrauxifen-benzyl (15 g a.i./ha) (7 DAA, Example 2): 30% | Observed efficacy (%) of Florpyrauxifen-benzyl (15 g a.i./ha) (28 DAA, Example 2): 20%

COCc1cnc(C2=NC(C)(C(C)C)C(=O)N2)c(C(=O)O)c1 (stereo not drawn) [Imazamox]
Observed efficacy (%) of Imazamox (21 g a.i./ha) (3 DAA, 21 g a.i./ha, Example 6): 10%

Cc1cnc(C2=NC(=O)C(C)(C(C)C)N2)c(C(=O)O)c1 (stereo not drawn) [Imazapic]
Observed efficacy (%) of Imazapic (59 g a.i./ha) (3 DAA, Example 7): 10% | Observed efficacy (%) of Imazapic (59 g a.i./ha) (7 DAA, Example 7): 20% | Observed efficacy (%) of Imazapic (59 g a.i./ha) (14 DAA, Example 7): 35% | Observed efficacy (%) of Imazapic (59 g a.i./ha) (21 DAA, Example 7): 30% | Observed efficacy (%) of Imazapic (59 g a.i./ha) (28 DAA, Example 7): 40% | Observed efficacy (%) of Imazapic (59 g a.i./ha) (35 DAA, Example 7): 60%

CP(=O)(O)CC[C@H](N)C(=O)O.N [L-glufosinate ammonium]
Observed efficacy (%) of L-glufosinate ammonium (Glufosinate-P-ammonium) (150 g a.i./ha) (3 DAA, Example 6): 55% | Observed efficacy (%) of L-glufosinate ammonium (Glufosinate-P-ammonium) (150 g a.i./ha) (3 DAA, Example 7): 50% | Observed efficacy (%) of L-glufosinate ammonium (Glufosinate-P-ammonium) (150 g a.i./ha) (3 DAA, Example 8): 50% | Observed efficacy (%) of L-glufosinate ammonium (Glufosinate-P-ammonium) (150 g a.i./ha) (7 DAA, Example 1): 65% | Observed efficacy (%) of L-glufosinate ammonium (Glufosinate-P-ammonium) (150 g a.i./ha) (7 DAA, Example 2): 65% | Observed efficacy (%) of L-glufosinate ammonium (Glufosinate-P-ammonium) (150 g a.i./ha) (7 DAA, Example 3): 85% | Observed efficacy (%) of L-glufosinate ammonium (Glufosinate-P-ammonium) (150 g a.i./ha) (7 DAA, Example 5): 90% | Observed efficacy (%) of L-glufosinate ammonium (Glufosinate-P-ammonium) (150 g a.i./ha) (7 DAA, Example 7): 80% | Observed efficacy (%) of L-glufosinate ammonium (Glufosinate-P-ammonium) (150 g a.i./ha) (7 DAA, Example 8): 80% | Observed efficacy (%) of L-glufosinate ammonium (Glufosinate-P-ammonium) (150 g a.i./ha) (14 DAA, Example 3): 80% | Observed efficacy (%) of L-glufosinate ammonium (Glufosinate-P-ammonium) (150 g a.i./ha) (14 DAA, Example 5): 80% | Observed efficacy (%) of L-glufosinate ammonium (Glufosinate-P-ammonium) (150 g a.i./ha) (14 DAA, Example 7): 95% | Observed efficacy (%) of L-glufosinate ammonium (Glufosinate-P-ammonium) (150 g a.i./ha) (14 DAA, Example 8): 95% | Observed efficacy (%) of L-glufosinate ammonium (Glufosinate-P-ammonium) (150 g a.i./ha) (21 DAA, Example 7): 90% | Observed efficacy (%) of L-glufosinate ammonium (Glufosinate-P-ammonium) (150 g a.i./ha) (21 DAA, Example 8): 90% | Observed efficacy (%) of L-glufosinate ammonium (Glufosinate-P-ammonium) (150 g a.i./ha) (28 DAA, Example 1): 95% | Observed efficacy (%) of L-glufosinate ammonium (Glufosinate-P-ammonium) (150 g a.i./ha) (28 DAA, Example 2): 95% | Observed efficacy (%) of L-glufosinate ammonium (Glufosinate-P-ammonium) (150 g a.i./ha) (28 DAA, Example 4): 90% | Observed efficacy (%) of L-glufosinate ammonium (Glufosinate-P-ammonium) (150 g a.i./ha) (28 DAA, Example 7): 90% | Observed efficacy (%) of L-glufosinate ammonium (Glufosinate-P-ammonium) (150 g a.i./ha) (28 DAA, Example 8): 90% | Observed efficacy (%) of L-glufosinate ammonium (Glufosinate-P-ammonium) (150 g a.i./ha) (35 DAA, Example 4): 85% | Observed efficacy (%) of L-glufosinate ammonium (Glufosinate-P-ammonium) (150 g a.i./ha) (35 DAA, Example 7): 85% | Observed efficacy (%) of L-glufosinate ammonium (Glufosinate-P-ammonium) (150 g a.i./ha) (35 DAA, Example 8): 85%

CS(=O)(=O)c1ccc(C(=O)C2C(=O)CCCC2=O)c([N+](=O)[O-])c1 [Mesotrione]
Observed efficacy (%) of Mesotrione (360 g a.i./ha) (28 DAA, Example 4): 75% | Observed efficacy (%) of Mesotrione (360 g a.i./ha) (35 DAA, Example 4): 75%

CSc1nnc(C(C)(C)C)c(=O)n1N [Metribuzin]
Observed efficacy (%) of Metribuzin (360 g a.i./ha) (7 DAA, Example 5): 90% | Observed efficacy (%) of Metribuzin (360 g a.i./ha) (14 DAA, Example 5): 30%

CCOc1cc(Oc2ccc(C(F)(F)F)cc2Cl)ccc1[N+](=O)[O-] [Oxyfluorfen]
Observed efficacy (%) of Oxyfluorfen (430 g a.i./ha) (7 DAA, Example 3): 65% | Observed efficacy (%) of Oxyfluorfen (430 g a.i./ha) (14 DAA, Example 3): 70%
